Series [1] has as its system plexiform neurofibroma. The settings on record: cited from earlier work.
Series [2] relates to malignant peripheral nerve sheath tumor (MPNST) murine model. To be noted: cabozantinib and mirdametinib; Nf1 and Trp53 compound mutations; cited from earlier work.
The subject of series [3] is human immortalized NF1−/− Schwann cells (iPNF95.6). The series can be described thus: Caspase 3/7 Glo apoptosis assay. The settings on record: 24 hours; cabozantinib 39 nM to 5 μM; Navitoclax 1 μM positive control. The format is cell-based.
Series [4] is classed as in vivo, mouse.
The test system of series [5] is plexiform neurofibroma in Nf1^flox/flox;PostnCre mice. The series can be described thus: Plexiform neurofibroma tumor burden and histopathology in Nf1flox/flox. Format: in vivo, mouse.
The target in series [6] is T1, AXL (Mus musculus, UniProt Q00993).
T1 sequence (Q00993 19-888): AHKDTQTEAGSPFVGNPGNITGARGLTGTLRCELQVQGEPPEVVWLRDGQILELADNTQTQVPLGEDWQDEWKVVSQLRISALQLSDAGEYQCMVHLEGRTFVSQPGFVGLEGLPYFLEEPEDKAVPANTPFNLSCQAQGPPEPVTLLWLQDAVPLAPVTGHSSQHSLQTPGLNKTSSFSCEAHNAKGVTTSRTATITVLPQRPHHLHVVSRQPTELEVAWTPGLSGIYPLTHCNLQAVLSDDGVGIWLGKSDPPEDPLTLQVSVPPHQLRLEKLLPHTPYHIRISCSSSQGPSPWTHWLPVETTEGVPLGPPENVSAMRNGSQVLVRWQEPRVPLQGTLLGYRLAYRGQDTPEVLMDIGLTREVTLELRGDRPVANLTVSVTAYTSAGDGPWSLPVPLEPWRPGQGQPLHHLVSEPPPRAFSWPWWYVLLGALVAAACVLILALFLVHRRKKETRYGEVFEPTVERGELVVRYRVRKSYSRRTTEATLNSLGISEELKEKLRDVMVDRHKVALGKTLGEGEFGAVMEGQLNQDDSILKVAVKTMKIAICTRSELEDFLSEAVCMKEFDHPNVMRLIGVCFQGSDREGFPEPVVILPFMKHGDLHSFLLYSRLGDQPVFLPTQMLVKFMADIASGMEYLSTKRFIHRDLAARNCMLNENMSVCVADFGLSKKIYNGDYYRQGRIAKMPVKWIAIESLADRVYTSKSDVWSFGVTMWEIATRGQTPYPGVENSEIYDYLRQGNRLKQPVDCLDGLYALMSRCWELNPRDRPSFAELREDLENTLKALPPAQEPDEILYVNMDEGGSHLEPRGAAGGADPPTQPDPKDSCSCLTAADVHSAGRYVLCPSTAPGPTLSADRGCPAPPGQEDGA
The series can be described thus: AXL in tumor bearing nerve tissue of treated mice. The format is in vivo. The settings on record: 12 weeks of treatment vs vehicle; IHC and western blot.

Series [7] relates to soluble AXL (sAXL). The experiment in a line: Mouse sAXL ELISA in plasma. The format is in vivo. The settings on record: 12 weeks of treatment; vs WT mice or vehicle treated Nf1flox/flox;PostnCre mice. Background: In an ELISA, binding on a coated surface is turned into a signal by an enzyme label.
In series [8] the test system is plexiform neurofibroma tumor tissues. The experiment in a line: TUNEL staining of nerve tissues of treated mice. Format: in vivo, mouse.
The target in series [9] is T2, DDR1 (Mus musculus, UniProt Q03146).
T2 sequence (Q03146 20-911): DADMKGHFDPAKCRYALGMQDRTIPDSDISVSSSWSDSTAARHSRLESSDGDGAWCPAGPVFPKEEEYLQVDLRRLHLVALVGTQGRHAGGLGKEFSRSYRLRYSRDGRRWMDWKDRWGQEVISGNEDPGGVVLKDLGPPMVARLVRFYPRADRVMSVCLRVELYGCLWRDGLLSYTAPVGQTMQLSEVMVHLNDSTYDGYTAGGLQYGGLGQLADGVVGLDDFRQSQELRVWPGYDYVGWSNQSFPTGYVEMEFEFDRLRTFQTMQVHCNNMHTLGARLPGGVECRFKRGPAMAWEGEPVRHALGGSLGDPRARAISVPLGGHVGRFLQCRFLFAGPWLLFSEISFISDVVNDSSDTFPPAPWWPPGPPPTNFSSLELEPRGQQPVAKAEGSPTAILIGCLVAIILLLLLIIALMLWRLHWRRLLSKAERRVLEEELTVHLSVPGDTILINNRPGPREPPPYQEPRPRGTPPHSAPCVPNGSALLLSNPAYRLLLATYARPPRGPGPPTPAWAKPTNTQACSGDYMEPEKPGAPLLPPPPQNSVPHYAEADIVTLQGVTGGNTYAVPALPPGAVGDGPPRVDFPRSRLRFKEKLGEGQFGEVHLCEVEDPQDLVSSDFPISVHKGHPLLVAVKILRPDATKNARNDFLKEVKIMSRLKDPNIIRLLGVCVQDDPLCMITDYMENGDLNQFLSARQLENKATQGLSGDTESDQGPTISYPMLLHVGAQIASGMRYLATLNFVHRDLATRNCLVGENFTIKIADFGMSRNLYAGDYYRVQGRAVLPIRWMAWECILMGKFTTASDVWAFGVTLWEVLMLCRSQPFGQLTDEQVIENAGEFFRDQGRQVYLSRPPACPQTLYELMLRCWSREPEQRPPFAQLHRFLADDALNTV
The series can be described thus: MIB/MS kinome profiling of sciatic nerve tumor tissue after in vivo treatment. The settings on record: 7 days of sustained treatment vs vehicle.

Series [10] addresses T3, DDR2 (Mus musculus, UniProt Q62371).
T3 sequence (Q62371 22-854): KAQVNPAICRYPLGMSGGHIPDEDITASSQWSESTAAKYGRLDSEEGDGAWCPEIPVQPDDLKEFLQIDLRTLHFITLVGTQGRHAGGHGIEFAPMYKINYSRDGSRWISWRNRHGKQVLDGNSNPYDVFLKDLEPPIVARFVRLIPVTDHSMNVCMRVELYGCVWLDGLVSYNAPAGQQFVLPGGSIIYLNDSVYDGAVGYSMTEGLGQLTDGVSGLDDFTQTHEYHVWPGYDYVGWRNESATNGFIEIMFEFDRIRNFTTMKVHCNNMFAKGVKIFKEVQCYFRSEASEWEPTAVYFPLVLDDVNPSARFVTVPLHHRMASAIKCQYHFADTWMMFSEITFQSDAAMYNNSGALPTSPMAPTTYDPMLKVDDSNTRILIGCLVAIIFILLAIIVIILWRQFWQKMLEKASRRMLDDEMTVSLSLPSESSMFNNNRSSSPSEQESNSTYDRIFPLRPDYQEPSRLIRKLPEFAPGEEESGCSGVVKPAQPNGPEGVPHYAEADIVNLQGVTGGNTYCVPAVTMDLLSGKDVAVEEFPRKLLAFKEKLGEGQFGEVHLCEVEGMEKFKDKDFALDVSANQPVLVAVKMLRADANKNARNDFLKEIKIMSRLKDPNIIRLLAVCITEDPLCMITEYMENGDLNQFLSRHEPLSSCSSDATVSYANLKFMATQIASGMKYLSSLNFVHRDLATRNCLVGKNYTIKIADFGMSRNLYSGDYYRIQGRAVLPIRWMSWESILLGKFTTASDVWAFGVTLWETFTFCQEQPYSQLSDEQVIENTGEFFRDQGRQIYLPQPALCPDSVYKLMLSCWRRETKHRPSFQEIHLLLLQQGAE
The description is as above. To be noted: 7 days of sustained treatment vs vehicle.

For series [11], the target named is T1, AXL. The series is described as above. To be noted: 7 days of sustained treatment vs vehicle.
The subject of series [12] is AXL. The experiment in a line: pAXL western blot after GAS6 stimulation. Format: cell-based. To be noted: GAS6 200-250 ng/mL; cabozantinib 1000-2500 nM; Schwann cells, fibroblasts, ECFCs. (In western blotting, separated proteins are transferred to a membrane and probed.)
Series [13] relates to NF1-related plexiform neurofibroma. The format is in vivo, human.
The nature of series [14]: Phase 2 trial NCT02101736: safety and tolerability. The arrangement: species or system human. To be noted: in vivo.
Series [15] is classed as in vivo, human. The settings on record: baseline to cycle 12.
Series [16] can be described thus: Phase 2 trial NCT02101736: clinical pharmacokinetics. Format: in vivo. The settings on record: 40 mg dose, human plasma.

The values below come from paper PMC8275010 (Nature medicine, 2021).

Several values for one entry are separate records, joined by “and”; a condition that tells them apart may be missing. Equal entries are not always repeated.

On to `Cn1cnc2c(F)c(Nc3ccc(Br)cc3Cl)c(C(=O)NOCCO)cc21` [selumetinib], for which the partial response rate in series [1] (children with progressive PN) is recorded as 74%.

As for pegylated interferon alfa-2b, in series [1], the “clinical outcome in PN” value is “only prolonged PN time to progression”.

As to `O=C(NOC[C@H](O)CO)c1ccc(F)c(F)c1Nc1ccc(I)cc1F` [mirdametinib], the “tumor growth in MPNST murine model” value in series [2] is recorded as “reduce growth”.

As for `CC1(C)CCC(c2ccc(Cl)cc2)=C(CN2CCN(c3ccc(C(=O)NS(=O)(=O)c4ccc(N[C@H](CCN5CCOCC5)CSc5ccccc5)c(S(=O)(=O)C(F)(F)F)c4)cc3)CC2)C1` [Navitoclax], the “apoptosis (caspase 3/7 activity)” value in [3] is recorded as “robust increase”.

The term Tmax denotes the time at which the peak concentration occurs. As to `COc1cc2nccc(Oc3ccc(NC(=O)C4(C(=O)Nc5ccc(F)cc5)CC4)cc3)c2cc1OC` [cabozantinib], in series [4] (Nf1flox/flox;PostnCre, mouse, plasma, po, 15 mg/kg), the Tmax came to 2 h. The “maximum concentration in plasma” value in series [4] (single 15mg/kg oral gavage dose, Nf1flox/flox;PostnCre mice, plasma) was 6800 ng/mL. Also, the “maximal concentration in nerve tissue” value in [4] (single 15mg/kg oral gavage dose, nerve tissue) is 636 ng/g. Moreover, the “reduction of number of PN per mouse” value in [5] (15mg/kg daily oral gavage, 12 weeks, relative to vehicle control) is recorded as “approximately 60%”. The “reduction of mean volume of the proximal peripheral nerve roots” value in [5] (15mg/kg daily oral gavage, 12 weeks, vs vehicle) stood at 38%. The mast cell infiltration entry in series [5] (toluidine blue stained sections, 12 weeks treatment vs vehicle, P = 0.1013) is recorded as “not significantly changed”. Further, the “neoangiogenesis (blood vessels, CD31 immunohistochemistry)” value in series [5] (treated tumors versus vehicle control, P < 0.0001) is given as “significant reduction”. Further, the “AXL in treated tissues” value in [6] is listed as “significant decline”. Besides, in [7], the sAXL in plasma entry is recorded as “significantly elevated”. The “apoptosis in nerve tissues (TUNEL staining)” value in series [8] is “negative for TUNEL staining”. For the same compound, the “MIB binding of DDR1” value in series [9] is reported as “loss of MIB binding”. Besides, in series [10], the “MIB binding of DDR2” value is “loss of MIB binding”. The “MIB binding of AXL” value in series [11] is listed as “loss of MIB binding”. Moreover, the “Gas6 mediated activation of AXL at the biochemical level (pAXL)” value in series [12] is on record as “inhibited”. In addition, the “apoptosis (caspase 3/7 activity)” value in series [3] is reported as “does not induce apoptosis”. Also, in series [13] (19 evaluable participants), the “disease progression while on study” value is given as “No patient had disease progression”. Also, in [13] (19 evaluable participants, 40 mg escalated to 60 mg once daily), the “partial response rate (PR, ≥20% reduction in target lesion volume by MRI)” value was 42% and 42.1%. In addition, in [13] (in vivo), the “participants in whom maximal tumor response was not achieved until cycle 18” value came out at 4 and the “participants in whom maximal tumor response was not achieved until cycle 24” value turned out to be 2. The “number of participants with PR” value in series [13] (of the 19 participants evaluable for response) came out at 8. In addition, in [14], the “participants requiring dose reductions while on study” value is “Seven”, the “participants with grade 3 adverse events” value is given as 8 and the “patients requiring dose reduction or discontinuation of therapy due to AEs” value was “Nine”. Moreover, the “mean decrease in worst tumor pain intensity” value in series [15] (responder group) came to 3 points. Besides, the “reduction in reported tumor pain (NRS-11), LSM estimate” value in series [15] (responders, p<0.0001) is reported as 3.00. Besides, the “change in PedsQL NF1 general pain and hurt scale, LSM estimate” value in [15] (total sample, p=0.0036, improvement) was −14.98. Besides, the “dose-normalized mean trough level” value in [16] (Cycle 1 Day 15) stood at 16.5 ng/mL/mg. Besides, the “dose-normalized mean trough level” value in series [16] (end of Cycle 1) amounted to 20.7 ng/mL/mg. Moreover, the “tumor growth in MPNST murine model” value in series [2] is “reduce growth”.
